The text below walks through data of patent US20070225213A1, “Nucleic acid carriers for delivery of therapeutic agents” (priority 2006, published 2007).

One experiment concerns MCF7. Put plainly: Toxicity of NAC-MTN vs CD-MTN and MTN, MTT (Example 9, EX042105). Type of experiment: cell-based, human. The protocol:
FIG. 4. […] The relative toxicity of NAC-MTN was compared with MTN and CD-MTN in four cell lines, MCF7(breast cancer), COS7green monkey kidney (SV40 transformed), 3T3 (mouse fibroblast), and BHK21(hamster kidney). Cells were treated with identical amounts of MTN formulated as either NAC-MTN, MTN only, or poly-beta-cyclodextrin-sulfylbutylether(CD-MTN). After an incubation period, cell viability was assayed with MTT assay. The differences in toxicity between NAC-MTN and MTN or NAC-MTN and CD-MTN are shown as % difference. Greater percentage difference correlates to more reduction in relative NAC-MTN toxicity.
MCF7, COS7, 3T3, and BHK21 cells were plated out in duplicate rows of equivalent cell density in 100ul final volume. Initial cell densities were 2000 cells/well.
Preparing NAC-MTN, CD-MTN, and MTN only. Combined 180 ul of 0.05 mg/ml MTN with […] 0.1 mg/ml herring sperm genomic DNA (HSGDNA, Promega), 1500 ul of 2× DMEM media containing 20% FBS to give 3.0 ml final volume and 12% final drug loading in the dsDNA. For MTN only, 180 ul of MTN was combined with 1320 ul H2O and 1500 ul 2× DMEM. […]
Aspirated media in plate and replaced with 50 ul of 0.5 mg/ml MTT in 1× media, incubated 3 hours, aspirated, air dried 5 min and dissolved in 100 ul of isopropyl, read OD at A570. […]

The next experiment relates to NIH3T3. The experiment in a line: Effect of plating time on uptake of NAC-MTN and MTN, fluorescence (Example 11). In kind it is cell-based, mouse. The conditions noted are these: cells treated <1 hour after plating. As to the method:
(§1) The effect of plating time on the differential rates of uptake between NAC-MTN and MTN were assayed in cells treated <1 hour and 24 hours after plating.
(§2) On day 1, MCF7, COS7, 3T3, and BHK21 cells were plated out in a standard tissue culture plate. After incubation of 20 minutes samples were added to cells in rows A, C, E, and G. Cells were incubated at 37C in a standard atmosphere of 5%CO2.
(§3) On day 2, samples were added to rows D, F, and H and the fluorescence was obtained EX620/EM680 S=80. Samples were removed from A,C,E and G, replaced with media and fluorescence read again. On day 2 observed significant drug toxicity in cells of rows A,C, E, G. Sample addition was postponed in row B since MCF7 were not yet confluent.
(§4) On day 3, added samples to cells in row B containing confluent MCF7's, removed samples from rows D, F, and H replaced with media and read fluorescence.
(§5) Fluorescence data from cells taken after removal of media was used to quantitate total MTN retained in the cells. Fluorescence data were converted to mg/ml MTN using a standard curve prepared with free MTN or NAC-MTN.
(§6) The percentage difference in fluorescence between cells treated with NAC-MTN or MTN alone was used to compare relative drug uptake.

In the next experiment the test system is BHK21. Described as above. Type of experiment: cell-based, hamster. As to the method:
as §1, §2, §3, §4, §5, §6
The MTN fluorescence ratios were obtained by dividing MTN fluorescence of cells incubated for 24 hours by fluorescence of cells incubated 30 minutes. […] The uptake in BHK21 was roughly equivalent for NAC-MTN regardless of plate adherence, however it should be noted that BHK21 adhere very rapidly to the plate.
Fluorescence data were converted to micromolar drug concentrations (uM MTN) using a standard curve for either nucleic acid bound or unbound drug, and drug uptake ratios were obtained by dividing the t(24 hour)/t(30 min.). The ratios of absolute drug concentration per well show more dramatic differences in uptake as shown below.

On to `O=C1c2c(O)ccc(O)c2C(=O)c2c(NCCNCCO)ccc(NCCNCCO)c21` [MTN, mitoxantrone], for which the “% tox. relative to media only” value with MCF7 (2 uM final MTN, MTT 48 hours after adding samples) stood at 48.39%. Besides, in the experiment on MCF7 (after 24 hours, 2 uM MTN), the toxic effect entry was “no toxic effect”. Moreover, the “FLUOR (MTN fluorescence in cells)” value in the experiment with NIH3T3 was found to be 18530; in the experiment with BHK21 (cells treated 24 hour after plating), 10746; with BHK21 (cells treated <1 hour after plating) it was 9557. In the experiment with BHK21, the “MTN FLUOR Ratio of t(24)/t(<1)” value is 0.73. Moreover, in the experiment with BHK21 (from standard curve for bound or unbound drug), the “Ratio uM MTN of t(24)/t(<1)” value turned out to be 1.2.
